# Experimental data taken from ChEMBL document CHEMBL1150630, “Oxidation, reduction, and methylation of carnosic acid by Nocardia” (J Nat Prod, 2002).
# Test system: Radical scavenging activity
# Experiment: Antioxidant activity assessed as DPPH free radical scavenging activity after 30 mins
# Type: functional
row,Structure (SMILES),IC50 [µM]
1,COc1c(C(C)C)cc2c(c1O)[C@@]1(CO)CCCC(C)(C)[C@@H]1CC2,83.4
2,CC1(C)CCC[C@@]23C(=O)OC(C[C@@H]12)c1cc(C(CO)CO)c(O)c(O)c13,66
3,O=C1O[C@H]([C@@H](O)CO)C(O)=C1O [ASCORBIC ACID],66.8
4,CC(C)c1cc2c(c(O)c1O)[C@@]1(C(=O)O)CCCC(C)(C)[C@@H]1CC2 [CARNOSIC ACID],53.3
5,CC(C)c1cc2c(c(O)c1O)[C@@]13CCCC(C)(C)[C@@H]1C[C@@H]2OC3=O [CARNOSOL],114
6,CCCOC(=O)c1cc(O)c(O)c(O)c1 [PROPYL GALLATE],46.1
7,Oc1cccc(O)c1O [PYROGALLOL],37.8
